From patent US20220010352A1, “ANIMAL MODELS AND SCREENING METHODS FOR INTRAOCULAR DISEASE OR DISORDER” (ZHUHAI QlWEl BIO-TECHNOLOGY LTD., priority 2018, published 2022)
Entries after “also recorded” stand apart in the source; their conditions may differ.

Key:
[1] = tested on: Bacillus megaterium; experiment: antibiotic sensitivity screening test in petri dishes (minimum inhibitory concentration method); assay type: cell-based; conditions: MIC method, 10^-1 to 10^-5 mg/mL in medium, FIG. 1
Experimental: The bacterial culture medium (HuanKai Microbial, Guangzhou, China) containing peptone 5 g, beef extract 3 g, NaCl 5 g, agar 15 g, and MnSO4 5 mg in 1 L ddH2O (pH=7.2) was prepared in conical flask (Drtech, Guangzhou, China) and was sterilized in the autoclave (HIRAYAMA, HEV-50, Japan) at 121° C. for 30 min. Bacillus megaterium (total 1*10^7 per culture) was cultured in the incubator (HettCube 200, Germany) at 37° C. for 24 h.
To test whether antibiotics can control the growth of Bacillus megaterium in vitro and in vivo, we first carried out an antibiotic sensitivity screening test in petri dishes which were made in example 1. The sensitivity of Bacillus megaterium to several major antimicrobial agents including ampicillin, vancomycin, neomycin, metronidazole and tetracycline were examined using the minimum inhibitory concentration (MIC) method. Ampicillin, vancomycin, neomycin, metronidazole, and tetracycline (purchased from Sigma, USA) at various concentrations (10^−1, 10^−2, 10^−3, 10^−4, 10^−5 mg/mL) were added into cooled medium.

[2] = tested on: Bacillus megaterium; experiment: Bacillus megaterium subretinal inoculation model, bacteria-induced drusenoid pathology in retinal tissues; assay type: in vivo, Macaca fascicularis; conditions: intravitreous, 0.5 mg, one injection on Day 2 post bacterial inoculation; macaque; compared to control; FIG. 8
Experimental: The macaques were sedated by intramuscular injection of a mixture of tiletamine hydrochloride (2.5 mg/kg) and xolazepam hydrochloride (2.5 mg/kg). After instilling topical anesthesia (0.5% proparacaine hydrochloride), the eyes were immediately visualized in vivo using a light microscope. The pupils were then dilated with 0.5% tropicamide and 0.5% phenylephrine to obtain the fundus photographs. […] Under microscopic monitoring, 20 μl of PBS (with or without bacteria) was injected into the subretinal space between photo receptors and RPE (retinal pigment epithelium), using a NanoFil Syringe Nanofil-100 for Microinjection (World Precision Instruments, USA). All procedures were done using sterile instruments. The macaque was euthanized 47 days post inoculation and the eyeball was enucleated for histological analyses. The eyeballs were fixed in 4% paraformaldehyde for 48 h and then embedded in paraffin. Sections were cut on a microtome at 6 μm and stained with H&E.
We examined whether subretinal inoculation of AH and VH cultures, as well as the cultured single species of B. megaterium led to AMD like pathology in macaque. About 20 CFU of bacteria (in 20 μl PBS) from AH, VH, and B. megaterium cultures were injected subretinally and PBS was used as a control (illustrated in FIG. 6). […]

[3] = ocular complications after intraocular administration in monkey; assay type: in vivo; conditions: data not shown
Excerpt: Next, we used the Bacillus megaterium subretinal inoculation model to test whether antibiotics might be able to change the bacteria-induced drusenoid pathology in monkey retinal tissues.

Q: Which “effectiveness in controlling the growth of Bacillus megaterium, fold less effective (relative to neomycin)” value [1] does the source give for `Cc1ncc([N+](=O)[O-])n1CCO` [metronidazole] here?
A: 10000 fold

Q: Which “size of drusenoid lesion in retinal tissue” value [2] does the source give for `CN[C@H](CC(C)C)C(=O)N[C@H]1C(=O)N[C@@H](CC(N)=O)C(=O)N[C@H]2C(=O)N[C@H]3C(=O)N[C@H](C(=O)N[C@H](C(=O)O)c4cc(O)cc(O)c4-c4cc3ccc4O)[C@H](O)c3ccc(c(Cl)c3)Oc3cc2cc(c3O[C@@H]2O[C@H](CO)[C@@H](O)[C@H](O)[C@H]2O[C@H]2C[C@](C)(N)[C@H](O)[C@H](C)O2)Oc2ccc(cc2Cl)[C@H]1O` [vancomycin] here?
A: reduction in the size of drusenoid lesion

Q: Which results are given for neomycin?
A: sensitivity of Bacillus megaterium to antimicrobial agent / in vitro activity controlling the expansion of Bacillus megaterium ([1]; 37° C. 24 h): most sensitive; also recorded: best in vitro activity; ocular complications [3]: significant ocular complications including ophthalmatrophia
